Data reported in patent publication US20040253718A1, “Methods of producing neurons” (priority 2003, published 2004).

Key:
dermal-derived UMC = test: Culture of UMC in plasma clots to generate neurons; assay type: cell-based, human; conditions: aFGF as the only growth factor in the culture medium
Description: The presence of higher concentration of Ca^2+ than normally present in culture medium (i.e., about 2 mM) was essential for growth of neurons in the plasma clot UMC cultures.
Lyophilized bovine plasma (Sigma Aldrich Co., St. Louis, Mo.; Cat. No. P-4639) was reconstituted with an appropriate volume of tissue culture medium not containing heparin, e.g., DMEM or Neurobasal medium (see above). An appropriate volume of a stock solution of CaCl2 (e.g., 300 mM) was added to a series of plastic tissue culture dishes (one set having a diameter of 30 mm and another set having a diameter of 60 mm) so as to give a final concentration of 15 mM after addition of plasma. Plasma was added to the culture dishes (1 ml to 30 mm dishes and 2 ml to the 60 mm dishes), which were swirled in order to mix the CaCl2 and plasma. […]
The dishes were then incubated at room temperature or 37° C. until the plasma had clotted. […] The dishes were then stored in a tissue culture incubator at 37° C. in at atmosphere of 10% CO2 until ready for use. A small quantity (about 5 cells to about 10^5 cells per clot) of dermal-derived UMC prepared as described in Example 1 was added to each dish and the cells were allowed to settle onto each clot. […]

[1] = tested on: UMC from skin and adipose tissue; test: Culture of non-adherent UMC from skin and adipose tissue; assay type: cell-based, human
Description: Cells were harvested and enriched in vitro for UMC by initiation of cultures from a skin biopsy obtained from a normal healthy human volunteer as follows. Biopsies of about 10 to about 200 mm^3 were obtained from the post auriculum area, and fibroblast tissue culture initiated as described above using DMEM containing 4500 mg/L D-glucose, 2 mM L-glutamine, nonessential amino acids, and 10% FBS. Colonies of non-adherent, actively growing cells were observed after adherent fibroblasts had reached full confluence in passage two or three. This process could be shortened by initiation of the culture in low serum and by the presence of 5 ng/ml aFGF, or by growth of the cells in a plasma clot directly from tissue (see Example 2) with addition of 300 mM CaCl2 to a final concentration of 15 mM. […] The colonies were collected by aspiration of culture medium containing the floating colonies and centrifugation of this medium. The cells pelleted by centrifugation were transferred to new tissue culture vessels by direct seeding in fresh culture medium containing aFGF and heparin (DMEM containing 4500 mg/L D-glucose, 2 mM L-glutamine, 2.5% heat inactivated FBS, 5 ng/mL recombinant human aFGF, and 5 μg/mL heparin). The cell suspension was added to fresh tissue culture flasks, which were incubated at 37° C. […]

Q: “aFGF: recombinant human acidic fibroblast growth factor” was tested. Which “growth of human neurons” value (dermal-derived UMC) did it give?
A: Enhanced growth

Q: What about the “morphology of cells in culture” value ([1]; in the presence of aFGF) of the same substance?
A: morphologically homogeneous in appearance and had a cobblestone-like morphology

Q: What about the “fate of cells in culture” value ([1]; upon removal of aFGF from the culture medium) of the same substance?
A: most of the cells fully differentiated into adherent fibroblasts
